Data published in patent publication US7550438B2, “Methods for production of growth-promoting proteins and peptides for kidney epithelial cells” (The University of Chicago, priority 1997, dated 2009).

How the values were obtained:
BSC-1 cells [1] = experiment: Appearance or release of WGF growth-promoting activity from BSC-1 cells (scrape wounding, heparinase); assay type: cell-based, African green monkey; settings: cells preincubated 10 minutes with the protease inhibitor
Description: None of these agents inhibited cell growth when added to cells of nonwounded cultures. When added to the medium after the appearance of WGF mitogenic activity, neither PMSF nor aprotinin appeared to inhibit the increment in cell proliferation.
Confluent monolayer cultures were mechanically scraped using a 200 μL pipet tip (Continental Laboratory Products, San Diego, Calif.). […] (This process of scraping the cells has been termed “wounding” and has been used for many years as a model system to study repair of corneal abrasions of the eye. In effect, pressure is applied to cells sufficient to disrupt intercellular adhesion). To determine whether kidney epithelial cells released an autocrine growth factor into the medium after wounding, conditioned culture medium was removed from the culture dish after scrape-wounding a monolayer of BSC-1 cells. An aliquot was assayed for any growth-promoting activity on a nonwounded “detector” culture (1.2×10^6 cells per […]).
Treatment of a confluent monolayer of BSC-1 cells with the enzyme heparinase I (Sigma), but not heparinase III (Sigma), releases WGF mitogenic activity from cells into the culture media. However, this seems to deplete WGF, at least temporarily. When cells are first treated with heparinase I, rinsed, the media aspirated, and the monolayer is then scrape-wounded, no growth-promoting activity is detected in the conditioned media.

[2] = tested on: monkey kidney epithelial cells of the BSC-1 line; experiment: Growth-promoting (mitogenic) activity: number of cells in BSC-1 cultures counted four days after addition; assay type: cell-based, African green monkey; settings: for stimulation of growth (increase in cell number compared to control at four days): agent alone at maximal mitogenic concentration (14-Ser 0.5 μg/ml; EGF, IGF-I 50 ng/ml; acidic FGF 100 pg/ml; basic FGF 1,000 pg/ml; vasopressin 75 pg/ml; K 10.4 mM; Na 180 mM); for stimulation of growth in the presence of the 14-Ser peptide: mitogenic signal at maximal concentration plus 14-Ser peptide 0.5 μg/ml, four days; for EC50: peptide alone, BSC-1 cells, 4 days in culture, read-out: Growth-Stimulation K½
Description: For the assay, cells were detached from the dish with a solution of trypsin and an aliquot was counted in a hemocytometer.
Nontransformed monkey kidney epithelial cells of the BSC-1 line were grown to confluence in Dulbecco's modified Eagle's medium containing 1% calf serum and […] in 55-mm culture dishes at 38° C. in a CO2 incubator. When cells achieved a density of about 10^6 per dish, the spent medium was removed and replaced with fresh medium containing 0.5% calf serum and the 14-amino acid peptide (0.5 μg/ml). Additions of each of the mitogenic signals at maximal concentration were made to the culture medium. Four days later the number of cells in each culture was counted in a hemocytometer. Values obtained were the mean of 3 separate cultures.
Nontransformed monkey kidney epithelial cells of the BSC-1 line were grown to confluence in Dulbecco's modified Eagle's medium containing 1% calf serum and 1.6 μM biotin at 38° C. in a CO2 incubator. When cells achieved a density of about 10^6 per dish, the spent medium was removed and replaced with fresh medium containing 0.5% calf serum and different amounts of the two peptides. Four days later the number of cells in each culture was counted. Each value is the mean of 3 separate cultures.
To delineate the sequence of the smallest peptide that could stimulate renal cell growth, synthetic peptides of different lengths were prepared (see below), and purified by reversed-phase HPLC on a C18 column.
The peptide of interest was then purified on a reversed-phase C18 column HPLC as described herein using a gradient of 1-80% acetonitrile in 0.1% trifluroacetic acid (TFA). The purified peptide was then lyophilized to remove the acetonitrile and TFA and the lyophilized powder was weighed, dissolved in buffer and added to the culture medium to measure its effect on the growth of monkey kidney epithelial cells as described herein. […] A value termed the K1/2, was used.

BSC-1 cells [3] = experiment: Time of contact with cells required to commit them to accelerated growth (washout, count at four days); assay type: cell-based, African green monkey; settings: for exposure time sufficient for maximal growth stimulation (commitment time): peptide then washed off, cells counted four days later
Description: Confluent monolayers of BSC-1 cells are prepared as herein and exposed to the 14-Ser peptide (0.5 μg/ml) for different amounts of time (0 to 30 minutes). At the end of the defined exposure period, culture medium containing the mitogen was aspirated, the monolayer was rinsed to remove non-adherent peptide, and fresh medium was added. Four days later the number of cells in the culture was counted.
In these experiments a solution containing the peptide of interest was added to the cell monolayer; culture medium was then aspirated at a specified time thereafter. Then fresh medium without the peptide was added and the number of cells was counted four days later.

[4] = tested on: rats with mercuric chloride-induced acute renal failure; experiment: Mercuric chloride-induced acute renal failure in rats: survival and renal function; assay type: in vivo, rat
Source text: Nephrotoxic and ischemic acute renal failure (ARF) induced experimentally in rats have long been used to model this syndrome in humans. […] Male rats weighed 200-225 gm at the start of the experiment. This dose was used because preliminary experiments indicated it results in survival of 25-50% of the animals 7 days later. […] An increase in serum creatinine concentration signals a decline in renal function because the injured kidney is unable to excrete endogenous creatinine in the urine so it accumulates in the blood.
The synthetic peptide […] (14-Ser) (SEQ ID NO: 15) (dissolved in sterile 0.01% bovine serum albumin in phosphate-buffered saline) was injected subcutaneously into rats to determine its effect on survival, recovery of renal fucntion, and stimulation of DNA synthesis. Multiple different peptides were studied including 14-Ser, […] (14-mer) (SEQ ID NO: 39), […] (16-mer) (SEQ ID NO: 4) […] (11-mer) (SEQ ID NO: 6), and […] (11-mer) (SEQ ID NO: 41). Different concentrations and times of administration were tested and compared.
Acute tubular necrosis was induced in 44 rats by the subcutaneous (s.c.) injection of mercuric chloride, and a single dose of 14-ser was administered s.c. 1 hour afterwards. Different amounts of the peptide were given to assesses its capacity to affect the outcome. Survival 7 days later was about twice as high in animals given 100-150 μg of peptide (63%) than in rats given 0-75 μg peptide (29%).
To determine the effect of the peptide on survival and recovery of renal function, acute tubular necrosis was induced in 59 rats; 29 received 14-Ser (100 μg/rat) and 30 received an equal volume of the vehicle s.c. 1 hour after administration of mercuric chloride. Enhanced survival (top panel) and renal functional recovery (bottom panel) of rats give a WGF-derived peptide after mercuric chloride-induced acute tubular necrosis are shown in FIG. 2A and FIG. 2B. Mercuric chloride was injected subcutaneously into each of the 59 rats, and 1 hour later 100 μg of WGF peptide (14-Ser) (n=29 rats) or the vehicle […] was given. Survival was greater in rats given the peptide than in animals receiving the vehicle as early as day 3 after administration of mercuric chloride. Blood was obtained from the tail vein on the days indicated, and serum creatinine concentration was measured. […] On days 2, 3 and 4, the lower creatinine concentration in peptide-treated rats indicates accelerated recovery of kidney function.
Experimental ARF was induced in rats by subcutaneous injection of mercuric chloride. The synthetic peptide […] […] In one experiment a total of 17 rats were injected with a dose of mercuric chloride shown to induce ARF. The different amounts of the peptide (known to stimulate growth of kidney cells in culture) were injected into the animals to assess capacity to improve the outcome. […] In contrast, two of three rats given 100 micrograms of peptide were alive, as were five of six given 200 micrograms. In summary, none of eight rats (0%) given up to 50 micrograms of peptide survived, whereas seven of nine (78%) given 100-200 micrograms did. Thus, the 11-mer WGF peptide improves survival in nephrotoxic ARF.
[…] Four days later, 63% of rats given the 14-Ser peptide were alive compared to 25% of animals receiving the vehicle (chi squared, P-0.0499); 50% of rats receiving EGF were alive (chi squared, P=N.S.). On day 5, 50% of rats given EGF were alive, compared to 12.5% of animals given the vehicle (chi squared, P=0.0436). […] These observations indicate that the 14-Ser peptide and EGF given after renal injury are similar in their ability to improve survival from the ARF syndrome.

O=S(=O)(F)Cc1ccccc1 [PMSF, phenylmethylsulfonyl-fluoride]
appearance of growth-promoting activity after wounding (BSC-1 cells [1]): prevented

Cc1ccc(S(=O)(=O)N[C@@H](CCCCN)C(=O)CCl)cc1.Cl [TLCK, L-1-chloro-3-(4-tosylamido)-7-amino-2-heptanone-hydrochloride]
appearance of growth-promoting activity after wounding (BSC-1 cells [1]): prevented

epidermal growth factor [EGF, reference compound]
concentration equivalent in mitogenic potency to partially-purified WGF [2]: 0.015 µg/mL | stimulation of growth (increase in cell number compared to control at four days) [2]: 31% | combined mitogenic effect with WGF (additivity) ([2]; maximal concentrations, 11-mer with wound conditioned buffer): additive | stimulation of growth in the presence of the 14-Ser peptide [2]: 61% | exposure time sufficient for maximal growth stimulation (commitment time) (BSC-1 cells [3]): 4 min | survival on day 6 ([4]; 14-Ser 100 μg 1 hour after, EGF 20 μg 2 hours after mercuric chloride, vehicle 12%): 37.5% | survival four days later ([4]; 14-Ser 100 μg s.c. 1 hour after, EGF 20 μg s.c. 2 hours after mercuric chloride 2.25 mg/kg, vehicle 25%): 50% | survival on day 5 ([4]; EGF 20 μg s.c. 2 hours after mercuric chloride, vehicle 12.5%): 50% | survival on day 4 ([4]; given 24 hours before mercuric chloride (EGF 20 μg, s.c.)): 25%

YPEGNH
EC50 [2]: 301 nM | exposure time for maximal mitogenic effect after keratan sulfate pretreatment (BSC-1 cells [3]; cells exposed to keratan sulfate 2 μg/ml for 5 minutes before peptide): 1.5 min | exposure time sufficient for maximal growth stimulation (commitment time) (BSC-1 cells [3]): 3 min

NC(=O)CC[C@@H]1NC(=O)[C@H](Cc2ccccc2)NC(=O)[C@H](Cc2ccc(O)cc2)NC(=O)[C@@H](N)CSSC[C@@H](C(=O)N2CCC[C@H]2C(=O)N[C@@H](CCCN=C(N)N)C(=O)NCC(N)=O)NC(=O)[C@H](CC(N)=O)NC1=O [vasopressin, reference compound]
stimulation of growth (increase in cell number compared to control at four days) [2]: 14% | stimulation of growth in the presence of the 14-Ser peptide [2]: 36% | exposure time sufficient for maximal growth stimulation (commitment time) (BSC-1 cells [3]): 2 min

aprotinin
appearance of growth-promoting activity after wounding (BSC-1 cells [1]): prevented

AQPYPQGNHEAQPYPQGNHEAQPYPQGNHEAQPYPQGNHE
EC50 [2]: 7 nM | exposure time sufficient for maximal growth stimulation (commitment time) (BSC-1 cells [3]): behaved similarly

B1: α2-macroglobulin (protein, UniProt P01023 24-1474, looked up)
Alpha-2-macroglobulin: SVSGKPQYMVLVPSLLHTETTEKGCVLLSYLNETVTVSASLESVRGNRSLFTDLEAENDVLHCVAFAVPKSSSNEEVMFLTVQVKGPTQEFKKRTTVMVKNEDSLVFVQTDKSIYKPGQTVKFRVVSMDENFHPLNELIPLVYIQDPKGNRIAQWQSFQLEGGLKQFSFPLSSEPFQGSYKVVVQKKSGGRTEHPFTVEEFVLPKFEVQVTVPKIITILEEEMNVSVCGLYTYGKPVPGHVTVSICRKYSDASDCHGEDSQAFCEKFSGQLNSHGCFYQQVKTKVFQLKRKEYEMKLHTEAQIQEEGTVVELTGRQSSEITRTITKLSFVKVDSHFRQGIPFFGQVRLVDGKGVPIPNKVIFIRGNEANYYSNATTDEHGLVQFSINTTNVMGTSLTVRVNYKDRSPCYGYQWVSEEHEEAHHTAYLVFSPSKSFVHLEPMSHELPCGHTQTVQAHYILNGGTLLGLKKLSFYYLIMAKGGIVRTGTHGLLVKQEDMKGHFSISIPVKSDIAPVARLLIYAVLPTGDVIGDSAKYDVENCLANKVDLSFSPSQSLPASHAHLRVTAAPQSVCALRAVDQSVLLMKPDAELSASSVYNLLPEKDLTGFPGPLNDQDNEDCINRHNVYINGITYTPVSSTNEKDMYSFLEDMGLKAFTNSKIRKPKMCPQLQQYEMHGPEGLRVGFYESDVMGRGHARLVHVEEPHTETVRKYFPETWIWDLVVVNSAGVAEVGVTVPDTITEWKAGAFCLSEDAGLGISSTASLRAFQPFFVELTMPYSVIRGEAFTLKATVLNYLPKCIRVSVQLEASPAFLAVPVEKEQAPHCICANGRQTVSWAVTPKSLGNVNFTVSAEALESQELCGTEVPSVPEHGRKDTVIKPLLVEPEGLEKETTFNSLLCPSGGEVSEELSLKLPPNVVEESARASVSVLGDILGSAMQNTQNLLQMPYGCGEQNMVLFAPNIYVLDYLNETQQLTPEIKSKAIGYLNTGYQRQLNYKHYDGSYSTFGERYGRNQGNTWLTAFVLKTFAQARAYIFIDEAHITQALIWLSQRQKDNGCFRSSGSLLNNAIKGGVEDEVTLSAYITIALLEIPLTVTHPVVRNALFCLESAWKTAQEGDHGSHVYTKALLAYAFALAGNQDKRKEVLKSLNEEAVKKDNSVHWERPQKPKAPVGHFYEPQAPSAEVEMTSYVLLAYLTAQPAPTSEDLTSATNIVKWITKQQNAQGGFSSTQDTVVALHALSKYGAATFTRTGKAAQVTIQSSGTFSSKFQVDNNNRLLLQQVSLPELPGEYSMKVTGEGCVYLQTSLKYNILPEKEEFPFALGVQTLPQTCDEPKAHTSFQISLSVSYTGSRSASNMAIVDVKMVSGFIPLKPTVKMLERSNHVSRTEVSSNHVLIYLDKVSNQTLSLFFTVLQDVPVRDLKPAIVKVYDYYETDEFAIAEYNAPCSKDLGNA
appearance of growth-promoting activity after wounding (BSC-1 cells [1]): prevented
